Experimental findings from ChEMBL document CHEMBL1201862, “PubChem BioAssay data set” (2004) are described below.

Molecules are shown by their SMILES.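 A five-concentration, 48-hour dose response in 96-well plates underlies each endpoint, interpolated linearly between surrounding concentrations. GI50 is the concentration that inhibits growth by half.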 Calls of active or inactive are those of the source. Cut-off read from the data, not from the text of the source: active = GI50 up to about 1.1 µM and inactive = higher. Where only a bound is given, the exact number is not on record here.

Assay in all cases: NCI-60 cell line screen, 48 h
The test system of test [1] is LOX IMVI.
The subject of test [2] is NCI-H522.
Test [3] relates to OVCAR-3.
For test [4], the system named is CCRF-CEM.
The subject of test [5] is U-251.
Test [6] relates to HCT-15.
Test [7] has as its system CAKI-1.
Test [8] has as its system SNB-19.
For test [9], the system named is HOP-62.
Test [10] relates to NCI/ADR-RES.
The test system of test [11] is SK-OV-3.
The subject of test [12] is SF-539.
Test [13] concerns Malme-3M.
In test [14] the test system is HOP-92.
Test [15] deals with SW-620.
Test [16] concerns DU-145.
For test [17], the system named is MDA-MB-231.
Test [18] concerns SNB-75.

As to `COc1cccc(-c2nc(O)c3ccccc3n2)c1`, the GI50 in [1] is 52.6 µM (inactive); in [2] it was 23.2 µM (inactive); in test [3], 21.2 µM (inactive); in test [4], > 10 µM (inactive); in test [5] it was 7.31 µM (inactive); in [6] it was 18 µM. In addition, the GI50 was 16.4 µM (inactive) in test [7]; 19.8 µM (inactive) in test [8]; 17.5 µM (inactive) in [9]; 18.1 µM (inactive) in test [10]; 19.7 µM (inactive) in [11]; 23.3 µM (inactive) in [12]. For the same compound, the GI50 in [13] is 21.6 µM (inactive); in test [14], 27 µM (inactive); in test [15] it was 32.9 µM (inactive); in [16], 29.1 µM (inactive); in [17], 25.3 µM (inactive).
For the compound `O=C1CC(C(=O)N2CCCCC2)n2c(=O)n(-c3ccccc3)c(=O)n2C1` (centres undefined), the GI50 in test [1] was > 100 µM (inactive); in test [2] it was > 100 µM (inactive); in test [3] it was > 100 µM (inactive); in test [18] it was > 100 µM (inactive); in [6], above 100 µM; in [7], > 100 µM (inactive). Moreover, the GI50 in [8], in test [9], in [10], in [11], in [12] and in test [13] was > 100 µM (inactive) in each case. Besides, the GI50 in [16] and in [17] was > 100 µM (inactive) throughout.
As to `CC1(C)[C@@H]2CC[C@@]1(C)[C@H](O)[C@@H]2SCc1ccccc1`, the GI50 was 18.5 µM (inactive) in [1]; 15.2 µM (inactive) in test [2]; 17.1 µM (inactive) in test [3]; 19 µM (inactive) in [4]; 27.4 µM (inactive) in [18]; 17.1 µM (inactive) in [5]. The GI50 in [6] is 14.8 µM; in [7] it was 25.1 µM (inactive); in test [8] it was 16.8 µM (inactive); in test [9] it was 17.9 µM (inactive); in test [10] it was 15.8 µM (inactive); in [11] it was 20.5 µM (inactive). Besides, the GI50 in [12] was 17.8 µM (inactive); in test [14], 13.7 µM (inactive); in [15], 25.5 µM (inactive); in test [16], 19.9 µM (inactive); in [17], 16.8 µM (inactive).
`NC(=S)N/N=C1\NC(=O)/C(=C/c2ccc3c(c2)OCO3)S1`: the GI50 in test [1] was 28.3 µM (inactive); in test [3], 19.2 µM (inactive); in [18], 14.3 µM (inactive); in [5], 22.6 µM (inactive); in test [6], 26.7 µM; in test [7], 25.3 µM (inactive). Further, the GI50 in [8] was 18 µM (inactive); in [9], 20.9 µM (inactive); in test [10] it was 27.8 µM (inactive); in test [11] it was 30 µM (inactive); in test [12] it was 35.1 µM (inactive); in test [14] it was 21.5 µM (inactive). In addition, the GI50 in test [15] is 31.8 µM (inactive); in test [16], 28.2 µM (inactive); in test [17] it was 25.8 µM (inactive).
On to `CC(C)N(C(C)C)S(=O)(=O)CC12CCC(C/C1=N\O)C2` (centres undefined), for which the GI50 in [1], in [2], in test [3], in test [4], in test [18] and in [5] was > 100 µM (inactive) each time. The GI50 in [6] was above 100 µM; in test [7] it was > 100 µM (inactive); in test [8], > 100 µM (inactive); in [9], > 100 µM (inactive); in [10], > 100 µM (inactive); in test [11], > 100 µM (inactive). In addition, the GI50 in [12], in [13], in test [15], in test [16] and in [17] was > 100 µM (inactive) throughout.
As to `O=C1OC(c2ccccc2)=N/C1=C\c1ccc(F)cc1`, the GI50 is 38.9 µM (inactive) in [1]; 40.5 µM (inactive) in test [2]; 22.2 µM (inactive) in test [3]; 35.8 µM (inactive) in [4]; > 100 µM (inactive) in [18]; 89.7 µM (inactive) in test [5]. Besides, the GI50 in test [6] was above 100 µM; in test [7], > 100 µM (inactive); in test [8], > 100 µM (inactive); in test [9], 42.4 µM (inactive); in test [10] it was 46.6 µM (inactive); in test [11] it was > 100 µM (inactive). Moreover, the GI50 in test [14], in test [15], in test [16] and in [17] was > 100 µM (inactive) in each case.
For `Cc1c(C)c2c(c(N)c1C#N)C(=O)N(Cc1ccc(S(N)(=O)=O)cc1)C2=O`, the GI50 was 64.6 µM (inactive) in [1]; > 41.5 µM (inactive) in test [3]; > 100 µM (inactive) in [4]; > 35.9 µM (inactive) in test [18]; 7.18 µM (inactive) in test [5]; above 72.9 µM in test [6]. In addition, the GI50 in test [7] was > 100 µM (inactive); in test [8], 5.51 µM (inactive); in [9], 4.07 µM (inactive); in [10], > 57.9 µM (inactive); in [11] it was 4.43 µM (inactive); in test [12], > 34.4 µM (inactive). The GI50 in [13] is 20.5 µM (inactive); in test [14], 13.6 µM (inactive); in [15], > 100 µM (inactive); in test [16] it was 32.1 µM (inactive); in test [17], 19.7 µM (inactive).
With `N#CI1OC(C(F)(F)F)(C(F)(F)F)c2ccccc21`, the GI50 in test [1] is 18.8 µM (inactive); in test [2], 7.19 µM (inactive); in test [3], 15.7 µM (inactive); in [4], 18.7 µM (inactive); in test [18], 13.9 µM (inactive); in test [5], 21.2 µM (inactive). Further, the GI50 in [6] is 15.1 µM; in test [7] it was 14.1 µM (inactive); in test [9], 57.5 µM (inactive); in test [10], 15.8 µM (inactive); in [11], > 100 µM (inactive); in [12] it was 19.9 µM (inactive). The GI50 in test [14] is 16.3 µM (inactive); in test [15], > 10 µM (inactive); in test [16], 18.6 µM (inactive); in test [17], 24 µM (inactive).
For `CC(=O)N1CC(C)(C)c2c(C)c(O)c(C)c(C)c21`, the GI50 in test [1] is > 100 µM (inactive); in test [2], > 100 µM (inactive); in test [3], > 100 µM (inactive); in test [4] it was > 100 µM (inactive); in test [18], 54.5 µM (inactive); in test [5], > 100 µM (inactive). The GI50 in test [6] is above 100 µM; in test [8], > 100 µM (inactive); in [9], > 100 µM (inactive); in test [10], > 100 µM (inactive); in test [11] it was > 100 µM (inactive); in test [12], > 100 µM (inactive). Moreover, the GI50 in test [14], in test [15], in test [16] and in [17] was > 100 µM (inactive) in each case.
In the case of `COc1ccc(/C=N/Nc2nc3ccccc3c(=O)n2-c2ccccc2)cc1`, the GI50 in [1] is 95.1 µM (inactive); in [2], > 100 µM (inactive); in [3] it was > 100 µM (inactive); in test [4], > 100 µM (inactive); in test [18], 86.5 µM (inactive); in [5], > 100 µM (inactive). Further, the GI50 in [6] was above 100 µM; in [7], > 100 µM (inactive); in test [8], > 100 µM (inactive); in test [9], > 100 µM (inactive); in test [10] it was > 100 µM (inactive); in test [11] it was > 100 µM (inactive). Further, the GI50 in test [12], in test [13], in [15], in test [16] and in [17] was > 100 µM (inactive) throughout.
For the compound `O=C1CC(c2ccccc2Cl)Oc2ccccc21` (centres undefined), the GI50 is 40.4 µM (inactive) in test [1]; 33.9 µM (inactive) in [4]; 22.7 µM (inactive) in test [18]; 27.7 µM (inactive) in [5]; 24.7 µM in test [6]; 40.9 µM (inactive) in test [7]. Also, the GI50 in test [8] is 34.9 µM (inactive); in test [9] it was 25.9 µM (inactive); in test [10] it was 13.1 µM (inactive); in test [11], > 100 µM (inactive); in [12], 16 µM (inactive); in [14] it was 25 µM (inactive). In addition, the GI50 in test [15] is 25.5 µM (inactive); in [16], 45 µM (inactive); in test [17] it was 26.9 µM (inactive).
For the compound `COC1=CC(=O)c2c(c(-c3nc(C)cs3)cn2C)C1=O`, the GI50 was 0.804 µM (active) in test [1]; 1.06 µM (active) in test [2]; 1.75 µM (inactive) in test [3]; 4.5 µM (inactive) in [4]; 1.75 µM (inactive) in test [18]; 4.67 µM (inactive) in [5]. The GI50 in [6] is 1.28 µM; in test [7], 5.97 µM (inactive); in test [8], 4.23 µM (inactive); in test [9], 3.05 µM (inactive); in test [10] it was 4 µM (inactive); in [11], 41.2 µM (inactive). The GI50 in [12] was 2.2 µM (inactive); in [14], 14.9 µM (inactive); in test [15], 3.24 µM (inactive); in test [16] it was 3.76 µM (inactive); in test [17] it was 15.7 µM (inactive).
